Test results taken from paper PMC8126888 (RSC Medicinal Chemistry, 2020).
In brackets after ≈: the same amount, converted by molar mass. Where two headings read alike, the source gives them in different places.

Assays:
[1] = test system: primary peritoneal mouse macrophages (PMM); test: cells; conditions: Macrophage, read-out: PMM IC50
in vitro [2] = conditions: human, microsomes, pH 7.4, HLM CLint, human liver microsomes
in vitro [3] = conditions: mouse, microsomes, pH 7.4, MLM CLint, mouse liver microsomes
physchem [4] = conditions: PBS, pH 7.4, aqueous buffer, kinetic from dmso stock
in vitro [5] = conditions: human, THP-1 cells differentiated with PMA
in vitro [6] = conditions: human
in vitro [7] = conditions: human, HepG2 cells
[8] = test system: Leishmania infantum MHOM/MA(BE)/67/ITMAP263 intracellular amastigotes; test: microbe, parasite or virus in culture; conditions: Macrophage, in Mus musculus
[9] = test system: axenic L. don. amastigotes (MHOM/SD/62/1S-CL2, LdBOB); test: microbe, parasite or virus in culture; conditions: Leishmania donovani, read-out: L. donovani MHOM/SD/62/1SCL2D axenic-cidal amastigotes IC50
[10] = test system: Trypanosoma cruzi, Tulahuen CL2, beta-galactosidase strain; test: microbe, parasite or virus in culture; conditions: MRC5, read-out: T. cruzi Tulahuen C4 (LacZ) IC50
[11] = test system: L. donovani MHOM/SD/62/1SCL2D intracellular amastigotes; test: microbe, parasite or virus in culture; conditions: Leishmania donovani, read-out: L. donovani MHOM/SD/62/1SCL2D intracellular amastigotes IC50
physchem [12] = conditions: HPLC, Ascentis Express RP Amide column, pH 7.4, eLogD, experimental
in vitro [13] = conditions: human, HFF-1 cells
in vitro [14] = conditions: human, HepG2 cells; remark: listed apart in the source
in vitro [15] = conditions: PAMPA
[16] = test system: L. infantum MHOM/MA/67/ITMAP263 axenic Promastigotes; test: microbe, parasite or virus in culture; conditions: Leishmania infantum, read-out: L. infantum MHOM/MA/67/ITMAP263 axenic Promastigotes IC50
[17] = read-out: L. Inf. pIC50 (converted)
[18] = read-out: L. infantum MHOM/MA(BE)/67/ITMAP263 intracellular amastigotes IC50
[19] = read-out: L. Inf. pIC50, from L. infantum intracellular amastigote IC50 (converted)
[20] = read-out: L. infantum MHOM/MA(BE)/67/ITMAP263 intracellular amastigotes IC50, intracellular amastigotes

## CCCCCOc1cc(C)c(C)cc1S(=O)(=O)NC1CCCC1 [DNDI0002550647]
other
  KS PBS - pH 2: 0.74 ug/mL
[1]
  IC50: 45.2 µM
In vitro [2]
  microsomal CLint at 0.5 μM: 567 µL/min/mg
In vitro [3]
  microsomal CLint at 0.5 μM: 416 µL/min/mg
Physchem [4]
  solubility kinetic: 0.56 µg/mL (≈ 1.65 µM)
In vitro [5]
  CC50 at 120 h: > 50 µM
In vitro [6]
  CC50 at 3 days: 37 µM
In vitro [7]
  CC50: > 50 µM
[8]; [17]
  IC50: 1.05 µM
[8]; [18]
  IC50: 1.05 µM
[9]
  IC50: 12 µM
[10]
  IC50: 7.86 µM
[11]
  IC50: 13 µM

## CCCCCOc1cc(C)c(Cl)cc1S(=O)(=O)NCc1cccs1 [DNDI0002572712]
other
  KS PBS - pH 2: 0.39 ug/mL
[1]
  IC50: 40.3 µM
In vitro [2]
  microsomal CLint at 0.5 μM: 693 µL/min/mg
In vitro [3]
  microsomal CLint at 0.5 μM: 693 µL/min/mg
Physchem [4]
  solubility kinetic: 0.39 µg/mL (≈ 1.01 µM)
In vitro [5]
  CC50 at 120 h: > 50 µM
In vitro [6]
  CC50 at 3 days: 44.1 µM
In vitro [7]
  CC50: 40 µM
[8]; [17]
  IC50: 0.851 µM
[8]; [18]
  IC50: 0.85 µM
[9]
  IC50: 4.4 µM
[10]
  IC50: 12.2 µM
[11]
  IC50: 12 µM

## COc1cc(S(=O)(=O)N(Cc2ccccc2)Cc2ccccc2)c(OC)cc1C [DNDI0002644002]
other
  KS PBS - pH 2: 0.41 ug/mL
[1]
  IC50: > 64 µM
In vitro [2]
  microsomal CLint at 0.5 μM: 920 µL/min/mg
In vitro [3]
  microsomal CLint at 0.5 μM: 1080 µL/min/mg
Physchem [4]
  solubility kinetic: 0.41 µg/mL (≈ 0.996 µM)
In vitro [5]
  CC50 at 120 h: > 50 µM
In vitro [6]
  CC50 at 3 days: > 64 µM
In vitro [7]
  CC50: 39 µM
[8]; [17]
  IC50: 0.537 µM
[8]; [18]
  IC50: 0.54 µM
[9]
  IC50: 1.5 µM
[10]
  IC50: > 64 µM
[11]
  IC50: 12 µM

## COc1ccc(OC)c(S(=O)(=O)N(Cc2ccc(F)cc2)c2ccc(F)cn2)c1 [DNDI0003370085]
[1]
  IC50: > 64 µM
In vitro [2]
  microsomal CLint at 0.5 μM: 230 µL/min/mg
In vitro [3]
  microsomal CLint at 0.5 μM: 1990 µL/min/mg
Physchem [12]
  chromatographic logD: 3.5
In vitro [6]
  CC50 at 3 days: > 64 µM
In vitro [13]
  CC50: 15 µM
In vitro [14]
  CC50: 16.4 µM
In vitro [15]
  Papp: 7.1 ×10⁻⁶ cm/s
[8]; [19]
  IC50: 41.7 µM
[8]; [20]
  IC50: 41.9 µM
[10]
  IC50: 5.17 µM
[16]
  IC50: 33 µM

## O=C1c2ccccc2S(=O)(=O)N(Cc2ccccc2)C1Cc1ccccc1 (stereo not drawn) [DNDI0003370098]
[1]
  IC50: > 64 µM
In vitro [2]
  microsomal CLint at 0.5 μM: 141 µL/min/mg
In vitro [3]
  microsomal CLint at 0.5 μM: 1060 µL/min/mg
Physchem [12]
  chromatographic logD: 3.6
In vitro [6]
  CC50 at 3 days: 30.8 µM
In vitro [13]
  CC50: > 64 µM
In vitro [14]
  CC50: > 64 µM
In vitro [15]
  Papp: 4.11 ×10⁻⁶ cm/s
[8]; [19]
  IC50: 11.7 µM
[8]; [20]
  IC50: 11.7 µM
[10]
  IC50: 9.38 µM
[16]
  IC50: > 64 µM

## COc1ccc(CN2CCCC2)cc1S(=O)(=O)N(Cc1ccc(F)cc1)Cc1ccc(F)cc1 [DNDI0003370114]
[1]
  IC50: 8 µM
In vitro [2]
  microsomal CLint at 0.5 μM: 62 µL/min/mg
In vitro [3]
  microsomal CLint at 0.5 μM: 144 µL/min/mg
Physchem [12]
  chromatographic logD: 4.4
In vitro [6]
  CC50 at 3 days: 6.87 µM
In vitro [13]
  CC50: 13.8 µM
In vitro [14]
  CC50: 3.25 µM
In vitro [15]
  Papp: 0.64 ×10⁻⁶ cm/s
[8]; [19]
  IC50: 2.95 µM
[8]; [20]
  IC50: 2.92 µM
[10]
  IC50: 3.27 µM
[16]
  IC50: 0.72 µM

## COc1ccc(OC)c(S(=O)(=O)N(Cc2ncccn2)Cc2ncccn2)c1 [DNDI0003370115]
[1]
  IC50: > 64 µM
In vitro [2]
  microsomal CLint at 0.5 μM: 17 µL/min/mg
In vitro [3]
  microsomal CLint at 0.5 μM: 67 µL/min/mg
Physchem [12]
  chromatographic logD: 1.3
In vitro [6]
  CC50 at 3 days: > 64 µM
In vitro [13]
  CC50: > 64 µM
In vitro [14]
  CC50: > 64 µM
In vitro [15]
  Papp: 25.1 ×10⁻⁶ cm/s
[8]; [19]
  IC50: > 64 µM
[8]; [20]
  IC50: > 64 µM
[10]
  IC50: 61.4 µM
[16]
  IC50: > 64 µM

## COc1ccc(Cl)cc1S(=O)(=O)N(Cc1ccccc1)C(Cc1ccccc1)C(N)=O (stereo not drawn) [DNDI0003370116]
[1]
  IC50: 32 µM
In vitro [2]
  microsomal CLint at 0.5 μM: 752 µL/min/mg
In vitro [3]
  microsomal CLint at 0.5 μM: 801 µL/min/mg
Physchem [12]
  chromatographic logD: 4.2
In vitro [6]
  CC50 at 3 days: 9.62 µM
In vitro [13]
  CC50: 37.5 µM
In vitro [14]
  CC50: 39 µM
In vitro [15]
  Papp: 5.17 ×10⁻⁶ cm/s
[8]; [19]
  IC50: 4.68 µM
[8]; [20]
  IC50: 4.73 µM
[10]
  IC50: 5.3 µM
[16]
  IC50: 30.4 µM
